Test [1] concerns TNFα levels in serum of LPS-challenged rats. The experiment in a line: Rat inhibition studies: serum TNFα after iv LPS challenge. The test is classed as in vivo. Conditions: po, 100 mg/kg po, read-out: % inhibition r TNFα. On the procedure:
All studies were done with male rats CD (SD) IGS BR (Crl) (Charles River, France), which were grouped in to 5 animal groups.
At the end of the acclimatization period, the non-fasted rats were weighed, individually identified on the tail with a permanent marker and administered by oral (po) or interperitoneal (ip) route with either vehicle, reference or test compound in a volume of 10 mL/kg adapted to the body weight. The animals were gathered in groups of 5 animals in a polystyrene labeled cage with sawdust covered floors. 2-hours after vehicle, reference or test substance administration, rats received an intravenous (iv) injection of 0.1 mg/kg LPS in a volume of 1 mL/kg of body weight. 2 h after LPS challenge (or as indicated in Tables 3B and 4B), blood samples were collected into tubes without anticoagulant by retro-orbital puncture under gas (isoflurane) anesthesia. Samples were allowed to clot at room temperature for 5 to 10 min then put on ice until there were prepared by centrifugation (6000×g for 3 min at 4° C.) and stored at −20° C. until use. TNFα levels were measured in serum samples in duplicate by ELISA technique according to the manufacturer's procedure (Rat TNFα kit Quantikine M (RTA00, R&D System, France)). Data are reported as percent decrease in observed TNFα levels versus TNFa levels observed for vehicle dosed animal groups.

Test [2] addresses T1, PDE4B: The catalytic domain of human PDE4B from S152-S528 (Homo sapiens, UniProt Q07343).
T1 construct: His6 (N); thrombin cleavage site (N); made in house; host or cells: E. coli
The experiment in a line: PDE4 IC50 determination by Scintillation Proximity Assay, PDE4B. The test is classed as biochemical. The gist of the method:
(§1)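 Hydrolysis of [^3H]cAMP measured by SPA with yttrium silicate beads, which bind the [^3H]AMP product strongly and cAMP weakly. Enzyme at 80 ng/ml for PDE4B, 4 ng/ml for PDE4D; 30 min at 30°.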

The target of the next test is T2, PDE4D (Homo sapiens, UniProt Q08499).
T2 construct: PDE4D: The catalytic domain of human PDE4B from S3 16-V692; His6 (N); thrombin cleavage site (N); made in house; host or cells: E. coli
The experiment in a line: PDE4 IC50 determination by Scintillation Proximity Assay, PDE4D. It is filed as biochemical. The method, boiled down: as §1
(In general: SPA uses beads or plates that emit light when radiolabelled molecules are held near them.)

Test [3] deals with T3, full-length human PDE4D5 isozyme (Homo sapiens, UniProt Q08499).
T3 construct: The full-length human PDE4D5 isozyme; His6 (N); TEV cleavage site (N); made in house; host or cells: baculovirus infected insect cells (unpurified lysate)
The experiment in a line: PDE4 IC50 determination by Scintillation Proximity Assay, PDE4D5. It is filed as biochemical. The settings on record: Table 1B, Formula I compounds; read-out: IC50 PDE4D5. The gist of the method: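 Unpurified His6-tagged full-length human PDE4D5 from baculovirus-infected insect cell lysate, 0.083 μl glycerol stock/ml, hydrolysed [3H]cAMP in Tris pH 7.5/MgCl/EGTA buffer, 30 min at 30°. ZnSO4/SPA beads stop; [3H]AMP counted. Controls: DMSO and roflumilast; 11-point duplicate curves, nonlinear-regression IC50.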

The target in test [4] is T4, full-length human PDE4B2 isozyme (Homo sapiens, UniProt Q07343).
T4 construct: The full-length human PDE4B2 isozyme; His6 (N); TEV cleavage site (N); made in house; host or cells: baculovirus infected insect cells (unpurified lysate)
The experiment in a line: PDE4 IC50 determination by Scintillation Proximity Assay, PDE4B2. It is filed as biochemical. Conditions: Table 1B, Formula I compounds; read-out: IC50 PDE4B2. The method, boiled down:
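Unpurified His6-TEV-tagged full-length human PDE4B2 from baculovirus-infected insect cell lysate (2.5 μl of 50% glycerol stock/ml) hydrolysed [3H]cAMP in 50 mM Tris pH 7.5, 8.3 mM MgCl, 1.7 mM EGTA, 0.01% BSA for 30 min at 30°. Stopped with SPA beads in 18 mM ZnSO4; [3H]AMP scintillation counted, IC50 by non-linear regression.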

Setting [5] is: 2 h, rat in vivo inhibition assay, 2 hr challenge delay.
[6] abbreviates: Table 1B, Formula I compounds, read-out: IC50 PDE4B.
Where [7] appears, read: Table 1B, Formula I compounds, read-out: IC50 PDE4D.
Where [8] appears, read: 2 h, rat in vivo, 2 hr challenge delay, percent decrease in TNFα versus vehicle.
[9] abbreviates: second part of Table 2B (2-23 to 2-103), column 3, column is PDE4B in first part, read-out: IC 50 vs. indicated assay h TNFα.
Setting [10] is: second part of Table 2B (2-23 to 2-103), column 5, column is PDE4D in first part, read-out: IC 50 vs. indicated assay h TNFα.

Structures are written as SMILES. pIC50: −log10 of the molar value. Read-outs that look alike come from different tables or passages of the source.

T4 sequence (Q07343 1-564 isoform Q07343-2): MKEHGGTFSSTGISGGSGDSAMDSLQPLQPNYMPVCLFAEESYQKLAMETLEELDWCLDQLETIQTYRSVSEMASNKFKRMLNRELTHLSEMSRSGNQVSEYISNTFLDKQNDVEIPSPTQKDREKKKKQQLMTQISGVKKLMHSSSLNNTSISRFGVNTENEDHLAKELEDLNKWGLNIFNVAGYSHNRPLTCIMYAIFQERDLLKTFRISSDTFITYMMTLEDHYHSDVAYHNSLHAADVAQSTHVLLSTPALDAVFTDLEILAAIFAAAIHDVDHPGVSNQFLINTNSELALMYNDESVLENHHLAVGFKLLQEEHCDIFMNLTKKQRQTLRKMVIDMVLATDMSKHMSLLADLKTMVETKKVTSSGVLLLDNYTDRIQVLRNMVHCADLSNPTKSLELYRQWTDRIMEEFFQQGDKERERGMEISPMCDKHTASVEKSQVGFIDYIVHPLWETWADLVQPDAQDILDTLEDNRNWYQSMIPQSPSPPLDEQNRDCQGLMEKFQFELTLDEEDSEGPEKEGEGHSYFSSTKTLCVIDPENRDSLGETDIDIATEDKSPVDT
T2 sequence (Q08499 380-756): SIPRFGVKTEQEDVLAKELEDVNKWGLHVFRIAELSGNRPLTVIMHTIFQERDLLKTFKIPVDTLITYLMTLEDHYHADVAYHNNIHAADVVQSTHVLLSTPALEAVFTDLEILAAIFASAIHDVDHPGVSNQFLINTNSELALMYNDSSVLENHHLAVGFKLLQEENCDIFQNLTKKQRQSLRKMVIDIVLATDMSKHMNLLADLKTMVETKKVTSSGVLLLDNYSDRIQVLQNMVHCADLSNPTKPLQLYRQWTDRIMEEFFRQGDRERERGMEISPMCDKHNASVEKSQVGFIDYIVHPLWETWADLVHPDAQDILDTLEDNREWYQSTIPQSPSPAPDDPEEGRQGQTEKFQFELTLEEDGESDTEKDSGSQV
T3 sequence (Q08499 1-745 isoform Q08499-6): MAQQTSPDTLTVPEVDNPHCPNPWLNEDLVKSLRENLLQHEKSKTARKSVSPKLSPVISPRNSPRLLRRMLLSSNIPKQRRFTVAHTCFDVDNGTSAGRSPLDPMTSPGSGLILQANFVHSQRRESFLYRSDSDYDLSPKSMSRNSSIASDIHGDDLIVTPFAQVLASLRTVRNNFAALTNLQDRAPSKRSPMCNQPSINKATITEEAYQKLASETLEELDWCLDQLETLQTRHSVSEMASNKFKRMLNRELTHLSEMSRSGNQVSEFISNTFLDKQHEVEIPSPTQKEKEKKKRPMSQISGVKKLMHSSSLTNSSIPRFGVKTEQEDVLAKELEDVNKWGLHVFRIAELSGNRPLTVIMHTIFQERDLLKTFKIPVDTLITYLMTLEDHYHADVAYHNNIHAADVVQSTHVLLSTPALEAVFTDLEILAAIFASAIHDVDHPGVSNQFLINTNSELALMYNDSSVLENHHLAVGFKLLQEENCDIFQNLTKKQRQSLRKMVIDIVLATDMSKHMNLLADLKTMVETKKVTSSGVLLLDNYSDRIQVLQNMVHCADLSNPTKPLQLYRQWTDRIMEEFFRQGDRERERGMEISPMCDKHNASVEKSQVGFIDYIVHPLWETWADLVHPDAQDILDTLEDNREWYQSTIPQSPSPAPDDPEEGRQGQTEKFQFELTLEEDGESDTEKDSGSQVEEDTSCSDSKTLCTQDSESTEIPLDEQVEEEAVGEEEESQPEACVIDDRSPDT
T1 sequence (Q07343 with tags, fused parts or gaps): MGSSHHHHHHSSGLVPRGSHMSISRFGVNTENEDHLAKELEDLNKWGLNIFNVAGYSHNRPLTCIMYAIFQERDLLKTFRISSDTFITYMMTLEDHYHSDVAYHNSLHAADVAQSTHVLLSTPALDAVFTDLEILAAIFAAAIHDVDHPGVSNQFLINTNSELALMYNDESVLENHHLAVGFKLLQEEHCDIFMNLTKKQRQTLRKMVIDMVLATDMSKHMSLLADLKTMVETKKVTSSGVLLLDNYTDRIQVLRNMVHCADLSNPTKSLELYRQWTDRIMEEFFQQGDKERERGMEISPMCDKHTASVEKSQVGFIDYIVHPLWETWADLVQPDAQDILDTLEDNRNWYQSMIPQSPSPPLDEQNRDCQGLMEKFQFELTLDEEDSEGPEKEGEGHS

As for `N#Cc1c(Nc2ccc(OC(F)F)cc2)sc(C(=O)c2ccccc2)c1N` [Compound 1-166, 4-Amino-5-benzoyl-2-(4-difluoromethoxy-phenylamino)-thiophene-3-carbonitrile], the inhibition in vivo at 100 mg/kg in test [1] (setting [5]) is less than 20%. Moreover, the pIC50 (in test [2] (setting [6]); on PDE4D (setting [7])) was more than 5.00 in each case.
As for `CSc1ccc(Nc2sc(C(=O)c3ccccc3)c(N)c2C#N)cc1` [Compound 1-167, 4-Amino-5-benzoyl-2-(4-methylsulfanyl-phenylamino)-thiophene-3-carbonitrile], the inhibition in vivo at 100 mg/kg in test [1] (setting [5]) is less than 20%. Also, the pIC50 (in test [2] (setting [6]); on PDE4D (setting [7])) was more than 5.00 in each case.
`COc1ccc(C(=O)c2sc(Nc3cccc(SC)c3)c(C#N)c2N)cc1` [Compound 1-177, 4-Amino-5-(4-methoxy-benzoyl)-2-(3-methylsulfanyl-phenylamino)-thiophene-3-carbonitrile]: the inhibition in vivo at 100 mg/kg in test [1] (setting [5]) is less than 20%. Also, the pIC50 (in test [2] (setting [6]); on PDE4D (setting [7])) was more than 5.00 in each case.
For `N#Cc1c(NCCN2CCOCC2)sc(C(=O)c2cc(-c3ccccc3)no2)c1N` [Compound 1-213, 4-Amino-2-(2-morpholin-4-yl-ethylamino)-5-(3-phenyl-isoxazole-5-carbonyl)-thiophene-3-carbonitrile], the pIC50 was more than 5.00 in test [2] (setting [6]), less than 5.00 in test [3], less than 5.00 in test [4] and more than 5.00 at PDE4D (setting [7]).
As to `N#Cc1c(NCc2cccc(Cl)c2)sc(C(=O)c2cc(-c3ccccc3)no2)c1N` [Compound 1-214, 4-Amino-2-(3-chloro-benzylamino)-5-(3-phenyl-isoxazole-5-carbonyl)-thiophene-3-carbonitrile], the pIC50 (in test [2] (setting [6]); in test [3]; in test [4]; at PDE4D (setting [7])) was less than 5.00 each time.
`N#Cc1c(NC2CCCC2)sc(C(=O)c2nc3ccccc3s2)c1N` [Compound 1-215, 4-Amino-5-(benzothiazole-2-carbonyl)-2-cyclopentylamino-thiophene-3-carbonitrile]: the pIC50 (in test [2] (setting [6]); in test [3]; in test [4]; at PDE4D (setting [7])) was more than 5.00 each time.
With `COc1cccc(CNc2sc(C(=O)c3cc(-c4ccccc4)no3)c(N)c2C#N)c1` [Compound 1-216], the pIC50 (in test [2] (setting [6]); in test [3]; in test [4]; on PDE4D (setting [7])) was less than 5.00 each time.
In the case of `CC(C)(C)Nc1sc(C(=O)c2cc(-c3ccccc3)no2)c(N)c1C#N` [Compound 1-224, 4-Amino-2-tert-butylamino-5-(3-phenyl-isoxazole-5-carbonyl)-thiophene-3-carbonitrile], the pIC50 (in test [2] (setting [6]); in test [3]; in test [4]; on PDE4D (setting [7])) was more than 5.00 each time.
In the case of `CC(C)CNc1sc(C(=O)c2cc(-c3ccc(Cl)c(Cl)c3)no2)c(N)c1C#N` [Compound 1-226, 4-Amino-5-[3-(3,4-dichloro-phenyl)-isoxazole-5-carbonyl]-2-isobutylamino-thiophene-3-carbonitrile], the pIC50 (in test [2] (setting [6]); in test [3]; in test [4]; on PDE4D (setting [7])) was less than 5.00 each time.
Regarding `N#Cc1c(NC2CCCC2)sc(C(=O)c2cc(-c3ccc(Cl)cc3Cl)no2)c1N` [Compound 1-227, 4-Amino-2-cyclopentylamino-5-[3-(2,4-dichloro-phenyl)-isoxazole-5-carbonyl]-thiophene-3-carbonitrile], the pIC50 in test [2] (setting [6]) is more than 5.00; in test [3] it was less than 5.00; in test [4] it was less than 5.00; at PDE4D (setting [7]) it was more than 5.00.
Turning to `CCC(CC)Nc1sc(C(=O)c2cc(-c3ccccc3)no2)c(N)c1C#N` [Compound 1-228, 4-Amino-2-(1-ethyl-propylamino)-5-(3-phenyl-isoxazole-5-carbonyl)-thiophene-3-carbonitrile], the pIC50 in test [2] (setting [6]) was more than 5.00; in test [3] it was less than 5.00; in test [4] it was less than 5.00; at PDE4D (setting [7]), more than 5.00.
For `CC(C)CNc1sc(C(=O)c2ccc(Oc3ccccc3)cc2)c(N)c1C#N` [Compound 1-233, 4-Amino-2-isobutylamino-5-(4-phenoxy-benzoyl)-thiophene-3-carbonitrile], the pIC50 (in test [2] (setting [6]); in test [3]; in test [4]; on PDE4D (setting [7])) was more than 5.00 throughout.
Take `CC(C)C(C)Nc1sc(C(=O)c2cc(-c3ccc(Cl)c(Cl)c3)no2)c(N)c1C(N)=O` (stereo not shown) [Compound 1-248, 4-Amino-5-[3-(3,4-dichloro-phenyl)-isoxazole-5-carbonyl]-2-(1,2-dimethyl-propylamino)-thiophene-3-carboxylic acid amide]: the pIC50 in test [2] (setting [6]) is more than 5.00; in test [3], less than 5.00; in test [4], more than 5.00; at PDE4D (setting [7]) it was more than 5.00.
Take `CCOC(=O)c1cc(C(=O)c2sc(Nc3ccccc3F)nc2N)on1` [Compound 2-1, 5-[4-Amino-2-(2-fluoro-phenylamino)-thiazole-5-carbonyl]-isoxazole-3-carboxylic acid ethyl ester]: the inhibition in vivo at 100 mg/kg in test [1] (setting [8]) is less than 20%. Also, the pIC50 in test [2] (first part of Table 2B (2-1 to 2-22), read-out: IC 50 vs. indicated assay PDE4B) is more than 5.00; on PDE4D (first part of Table 2B (2-1 to 2-22), read-out: IC 50 vs. indicated assay PDE4D), more than 5.00.
On to `CCOC(=O)c1ccc(Nc2nc(N)c(C(=O)c3ccccc3)s2)cc1` [Compound 2-33, 4-(4-Amino-5-benzoyl-thiazol-2-ylamino)-benzoic acid ethyl ester], for which, in test [1] (setting [8]), the inhibition in vivo at 100 mg/kg was more than 20%. For the same compound, the pIC50 is more than 5.00 in test [2] (setting [9]) and less than 5.00 on PDE4D (setting [10]).
Taken in the same sequence, the figures for `COC(=O)c1cccc(Nc2nc(N)c(C(=O)c3ccccc3)s2)c1` [Compound 2-34, 3-(4-Amino-5-benzoyl-thiazol-2-ylamino)-benzoic acid methyl ester] were less than 20%, more than 5.00 and more than 5.00.
Consider `CCOC(=O)c1ccc(Nc2nc(N)c(C(=O)c3ccc(OC)cc3)s2)cc1` [Compound 2-38, 4-[4-Amino-5-(4-methoxy-benzoyl)-thiazol-2-ylamino]-benzoic acid ethyl ester], for which the inhibition in vivo at 100 mg/kg in test [1] (1 h, rat in vivo, 1 hr) is less than 20%. Further, the pIC50 (in test [2] (setting [9]); on PDE4D (setting [10])) was more than 5.00 each time.
`COc1ccc(C(=O)c2sc(Nc3ccc(C(=O)O)cc3)nc2N)cc1` [Compound 2-40, 4-[4-Amino-5-(4-methoxy-benzoyl)-thiazol-2-ylamino]-benzoic acid]: the inhibition in vivo at 100 mg/kg in test [1] (1 h, rat in vivo, 1 hr) was less than 20%. The pIC50 (in test [2] (setting [9]); on PDE4D (setting [10])) was more than 5.00 throughout.
Turning to `COc1ccc(C(=O)c2sc(Nc3c(Cl)cccc3Cl)nc2N)cc1` [Compound 2-41, [4-Amino-2-(2,6-dichloro-phenylamino)-thiazol-5-yl]-(4-methoxy-phenyl)-methanone], in test [1] (setting [8]), the inhibition in vivo at 100 mg/kg is less than 20%. The pIC50 (in test [2] (setting [9]); on PDE4D (setting [10])) was more than 5.00 throughout.

These data come from patent US7585859B2, “PDE4B inhibitors and uses therefor” (Plexxikon, Inc., priority 2004, dated 2009).
